How the values were obtained:
[1] = tested on: Pediculus humanus capitis eggs; test: Effect of formulated 5,5′-dimethyl-2,2′-dipyridyl on egg hatching (Example 3); conditions: for Stage of development: eggs with eye development / Stage of development: eggs with no eye development / Stage of development: eggs hatched: 10 eggs
Description: Gravid female lice were permitted to lay eggs over a 24 hour period. The eggs were counted, inspected under a light microscope and all eggs that appeared undamaged were allocated to one of two treatment groups. One group of 10 eggs was exposed to 5,5′-dimethyl-2,2′-dipyridyl in a formulation (52-06-01), while the second group of 10 eggs was exposed to the formulation only (vehicle, 52-06-02) Table 2. The two formulations were as follows: […]
Following a 10 minute exposure to either the 52-06-01 or […] formulations the eggs were subsequently washed for 1 minute with water (˜37° C.) before being placed at 31° C. in a humid incubator and monitored over time for signs of development specifically of the eyes and through to subsequent hatching.

[2] = tested on: Pediculus humanus humanus eggs; test: In vitro ovicidal efficacy, 0.74% w/w composition versus vehicle (Example 6); conditions: compared to the vehicle formulation
Description: This formulation including 0.5% BHT was also evaluated for its ovicidal activity.

[3] = tested on: Pediculus humanus capitis eggs; test: Ex vivo ovicidal efficacy, double-blind vehicle-controlled randomized clinical trial (Example 7)
Description: In this study the formulation as listed in Table 9 containing 0.74% 5,5′-dimethyl-2,2′-dipyridyl, (abametapir), was evaluated in a double-blind, vehicle-controlled randomized clinical trial. The primary aim of the trial was to evaluate the ovicidal efficacy of a single application of abametapir lotion 0.74% w/w intended for the treatment of head lice. The primary end point was the proportion of hatched eggs pre-treatment relative to proportion of hatched eggs post-treatment for the formulation containing abametapir and vehicle treated eggs following a 14 day incubation.
This ex vivo study involved identifying subjects with an active head lice infestation (active being defined as the presence of at least 3 live lice and at least 10 undamaged eggs). A minimum of 5 undamaged eggs were collected both pre and post treatment and their predicted viability assessed under a dissecting microscope before being incubated in a temperature and humidity controlled incubator (30° C. and 60% RH) for 14 days to provide adequate time for the eggs to hatch. After 14 days eggs were assessed as either hatched, unhatched, or partially hatched.

[4] = tested on: head lice Pediculus humanus capitis infestation; test: In vivo efficacy in subjects with head lice infestation, two dose levels (Example 8); conditions: single 10 minute application, human subjects 3 years or older
Description: (§1) One hundred and forty two (142) pediatric and adult subjects, three (3) years of age or older, with an active head lice infestation were enrolled in the study. This study assessed the efficacy of a single application of 2 different dose levels (0.37% w/w and 0.74% w/w of 5,5′-dimethyl-2,2′-dipyridyl) compared to a vehicle control. The formulations were prepared as described in Table 9. Subjects were treated for 10 minutes with a lotion containing one of two dose levels of 5,5′-dimethyl-2,2′-dipyridyl or the vehicle lotion. After 10 minutes the lotion was rinsed out of the subjects hair with water and towel dried. At day 1, 7 and 14 post treatment the hair was examined for the presence of live lice. If any live lice were detected on any of the three visits the subject was deemed a treatment failure. The primary endpoint to the study was that proportion of subjects who were lice free at day 14.

[5] = Safety of single application in subjects (Example 8); assay type: in vivo, human; conditions: single application at two dose levels 0.37% w/w and 0.74% w/w
Description: as §1

[6] = Safety of single application in Phase 3 studies (Example 9); assay type: in vivo, human; conditions: single application 0.74% w/w
Description: A total of seven hundred and four (704) pediatric and adult subjects, six (6) months of age or older, with an active head lice infestation were enrolled in two separate Phase 3 studies. These studies assessed the efficacy of a single application of 0.74% w/w abametapir compared to a vehicle control (refer Table 9, above). Subjects were treated for 10 minutes with a lotion containing abametapir or the vehicle lotion alone. After 10 minutes the lotion was rinsed out of the subjects hair with water and towel dried. At day 1, 7 and 14 post treatment the hair was examined for the presence of live lice. If any live lice were detected on any of the three visits the subject was deemed a treatment failure. The primary endpoint to the study was that proportion of index subjects (youngest member of the household with at least 3 live lice at the commencement of the study) who were lice free at all follow-up visits through day 14.

[7] = Day 1 of observation, formulation 52-06-01 (0.38%), 10 minute exposure
[8] = Day 4, formulation 52-06-01, 10 minute exposure
[9] = Day 5, formulation 52-06-01, 10 minute exposure
[10] = Day 6, formulation 52-06-01, 10 minute exposure
[11] = Day 7, formulation 52-06-01, 10 minute exposure
[12] = Day 12, formulation 52-06-01, 10 minute exposure

In the case of `Cc1ccc(-c2ccc(C)cn2)nc1` [5,5′-dimethyl-2,2′-dipyridyl], the “Stage of development: eggs with eye development” value (from here on “Stage … with eye development”) [1, 7] is reported as 1 eye development, the “Stage of development: eggs with no eye development” value (shortened to “Stage … with no eye development”) [1, 7] is reported as 9 no eye development and the “Stage of development: eggs hatched” value [1, 8] is reported as 1 hatched. The “Stage … with eye development” value [1, 8] was 1 eye development, the “Stage … with no eye development” value [1, 8] was 8 no eye development and the “Stage of development: eggs hatched” value [1, 9] was 1 hatched. For the same molecule, the “Stage … with eye development” value [1, 9] was 1 eye development, the “Stage … with no eye development” value [1, 9] was 8 no eye development and the “Stage of development: eggs hatched” value [1, 10] was 1 hatched. For the same molecule, the “Stage … with eye development” value [1, 10] was 1 eye development, the “Stage … with no eye development” value [1, 10] was 8 no eye development and the “Stage of development: eggs hatched” value [1, 11] was 1 hatched. The “Stage … with eye development” value [1, 11] was 1 eye development, the “Stage … with no eye development” value [1, 11] was 8 no eye development and the “Stage of development: eggs hatched” value [1, 12] was 1 hatched. The “Stage … with eye development” value [1, 12] was 1 eye development, the “Stage … with no eye development” value [1, 12] was 8 no eye development and the “eggs in the treatment arm failed to hatch” value ([1]; overall, ten eggs, 0.37% w/w formulation, 10 minute exposure) was 90%. For the same molecule, the “ovicidal activity (in words)” value [2] was “significant ovicidal activity”, the “Egg hatch Post-treatment” value ([3]; eggs collected after single application, 14 day incubation, N = 25) was 0% and the “Egg hatch Pre-treatment” value ([3]; eggs collected pre-treatment (baseline), 14 day incubation, N = 25) was 93.3%. The “Total absolute reduction in hatch rate (CI 95%)” value ([3]; generalized estimating equation model) was 92.9%, the “The treatment difference in the absolute reduction of hatch rates (abametapir minus Vehicle)” value ([3]; p < 0.0001) was 50.6% and the “ovicidal efficacy (eggs treated failed to hatch)” value ([3]; post-treatment, 14 day incubation) was 100%. For the same molecule, the “subjects with treatment success (lice free at day 14)” value ([4]; 0.37% w/w lotion) was 67.4%, the “subjects with treatment success (lice free at day 14)” value ([4]; 0.74% w/w lotion) was 85.7% and the safety results [5] was “safe and well tolerated”. For the same molecule, the safety results [6] was “safe and well tolerated”.
